From patent publication US9133183B2, “Imidazolidinones and analogs exhibiting anti-cancer and anti-proliferative activities” (Deciphera Pharmaceuticals, LLC, priority 2013, dated 2015)
Read-outs that look alike come from different tables or passages of the source.

Assays:
[1] = test system: osteoclast precursors; experiment: Osteoclast tartrate-resistant acid phosphatase assay; assay type: cell-based; conditions: Osteoclast, 7-14 days, RANKL and M-CSF
Procedure: Osteoclast Tartrate-Resistant Acid Phosphatase Assay
A serial dilution of test compound was dispensed into a 384-well black clear bottom plate (Nalge Nunc International, Rochester, N.Y.). Compound was diluted by the addition of DMEM media supplemented with 10% characterized fetal bovine serum (Invitrogen, Carlsbad, Calif.). Diluted compound was transferred to a 384-well black clear bottom plate. Two-thousand five hundred osteoclast precursors (Lonza, Walkersville, Md.) were added per well in growth media containing Receptor Activator of Nuclear Factor Kappa-beta ligand (RANKL) and M-CSF (R&D Systems, Minneapolis, Minn.). Plates were incubated for 7-14 days at 37 degrees Celsius, 5% CO2, and 95% humidity to allow differentiation of osteoclast precursors. At the end of the incubation period, 10 μL of supernatant from each well was transferred to a clear 384-well plate. Tartrate-resistant acid phosphatase activity in the supernatant samples was determined using an acid phosphatase assay kit (Sigma, St. Louis, Mo.). Absorbance was measured at 550 nm using a plate reader. Data was analyzed using Prism software (Graphpad, San Diego, Calif.) to calculate IC50 values.

[2] = test system: M-NFS-60 cells; experiment: M-NFS-60 cell proliferation assay (resazurin); assay type: cell-based; conditions: 67 h incubation
Procedure: M-NFS-60 cells (catalog #CRL-1838) were obtained from the American Type Culture Collection (ATCC, Manassas, Va.). Briefly, cells were grown in suspension in RPMI 1640 medium supplemented with 10% characterized fetal bovine serum (Invitrogen, Carlsbad, Calif.), 0.05 mM 2-mercaptoethanol, and 20 ng/mL mouse recombinant macrophage colony stimulating factor (M-CSF) at 37° C., 5% CO2, and 95% humidity. Cells were allowed to expand until reaching saturation at which point they were subcultured or harvested for assay use.
M-NFS-60 Cell Proliferation Assay
A serial dilution of test compound was dispensed into a 384-well black clear bottom plate (Corning, Corning, N.Y.). Two thousand five hundred cells were added per well in 50 μL complete growth medium. Plates were incubated for 67 h at 37° C., 5% CO2, and 95% humidity. At the end of the incubation period 10 μL of a 440 μM solution of resazurin (Sigma, St. Louis, Mo.) in PBS was added to each well and incubated for an additional 5 h at 37° C., 5% CO2, and 95% humidity. Plates were read on a Synergy2 reader (Biotek, Winooski, Vt.) using an excitation of 540 nm and an emission of 600 nm. IC50 values were calculated from a series of percent inhibition values determined at a range of inhibitor concentrations using software routines as implemented in the GraphPad Prism software package.

[3] = biological target: unphosphorylated c-FMS kinase (uFMS, Seq. ID no. 1) (Homo sapiens (Human), UniProt P07333); experiment: uFMS kinase assay (ADP production coupled to pyruvate kinase/lactate dehydrogenase); assay type: biochemical; conditions: enzymatic assay, ATP 500 μM
Chain of unphosphorylated c-FMS kinase (uFMS, Seq. ID no. 1) (P07333 538-972): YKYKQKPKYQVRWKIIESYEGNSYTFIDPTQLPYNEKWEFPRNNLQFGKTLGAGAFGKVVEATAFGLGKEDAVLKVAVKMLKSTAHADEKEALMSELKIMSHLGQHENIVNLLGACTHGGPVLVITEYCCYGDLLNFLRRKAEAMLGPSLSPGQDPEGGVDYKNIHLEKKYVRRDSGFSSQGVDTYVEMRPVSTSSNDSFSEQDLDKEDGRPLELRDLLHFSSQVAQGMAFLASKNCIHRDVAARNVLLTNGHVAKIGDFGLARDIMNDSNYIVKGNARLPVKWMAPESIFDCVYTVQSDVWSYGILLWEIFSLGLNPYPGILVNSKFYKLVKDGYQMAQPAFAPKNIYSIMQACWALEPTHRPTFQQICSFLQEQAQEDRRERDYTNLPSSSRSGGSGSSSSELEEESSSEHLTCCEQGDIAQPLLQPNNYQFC
Procedure: uFMS kinase (Seq. ID No. 1) Assay
In this assay, the oxidation of NADH (thus the decrease at A340 nm) was continuously monitored spectrophometrically. The reaction mixture (100 μL) contained FMS (purchased from Millipore) (10 nM), polyE4Y (1 mg/mL), MgCl2 (10 mM), pyruvate kinase (4 units), lactate dehydrogenase (0.7 units), phosphoenol pyruvate (1 mM), NADH (0.28 mM) and ATP (500 μM) in 90 mM Tris buffer containing 0.2% octyl-glucoside and 1% DMSO, pH 7.5. The inhibition reaction was started by mixing serial diluted test compound with the above reaction mixture. The absorption at 340 nm was monitored continuously for 4 hours at 30° C. on Synergy 2 plate reader. The reaction rate was calculated using the 3 to 4 h time frame. Percent inhibition was obtained by comparison of reaction rate with that of a control (i.e., in the absence of test compound). IC50 values were calculated from a series of percent inhibition values determined at a range of inhibitor concentrations using software routines as implemented in the GraphPad Prism software package.
uFMS Kinase Sequence (Y538-End) Used for Screening (Seq. ID No. 1)

[4] = biological target: unphosphorylated c-KIT kinase (uKIT, Seq. ID no. 2) (Homo sapiens (Human), UniProt P10721); experiment: uKit kinase assay (coupled pyruvate kinase/lactate dehydrogenase); assay type: biochemical; conditions: enzymatic assay, ATP 2000 μM
Chain of unphosphorylated c-KIT kinase (uKIT, Seq. ID no. 2) (P10721 other isoform, or with tags, fused parts or gaps): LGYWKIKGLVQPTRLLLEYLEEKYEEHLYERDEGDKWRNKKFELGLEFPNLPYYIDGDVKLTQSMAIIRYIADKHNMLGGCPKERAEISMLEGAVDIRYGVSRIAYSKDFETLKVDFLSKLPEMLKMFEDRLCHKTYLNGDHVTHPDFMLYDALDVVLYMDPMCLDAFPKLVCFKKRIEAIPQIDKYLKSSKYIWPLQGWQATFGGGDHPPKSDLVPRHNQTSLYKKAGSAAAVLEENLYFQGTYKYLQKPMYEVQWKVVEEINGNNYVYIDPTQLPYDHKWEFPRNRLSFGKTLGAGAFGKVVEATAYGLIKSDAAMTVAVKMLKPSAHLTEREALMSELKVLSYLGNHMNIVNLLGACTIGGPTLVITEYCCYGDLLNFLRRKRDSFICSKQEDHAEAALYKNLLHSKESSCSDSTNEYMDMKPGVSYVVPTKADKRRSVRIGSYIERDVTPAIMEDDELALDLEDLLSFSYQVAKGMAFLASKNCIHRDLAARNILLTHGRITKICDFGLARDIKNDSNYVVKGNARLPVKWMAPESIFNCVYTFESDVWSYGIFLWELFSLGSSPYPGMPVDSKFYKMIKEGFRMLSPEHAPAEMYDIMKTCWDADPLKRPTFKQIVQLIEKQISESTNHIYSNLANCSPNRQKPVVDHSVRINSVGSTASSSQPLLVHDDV
Procedure: uKit Kinase (Seq. ID No. 2) Assay
Activity of unphosphorylated c-KIT kinase (uKIT, Seq. ID no. 2) was determined by following the production of ADP from the KIT kinase reaction with ATP and poly E4Y as substrates through coupling with the pyruvate kinase/lactate dehydrogenase system (e.g., Schindler et al. Science (2000) 289: 1938-1942). In this assay, the oxidation of NADH (thus the decrease at A340 nm) was continuously monitored spectrophometrically. The reaction mixture (100 μl) contained unphosphorylated KIT (12 nM), polyE4Y (1 mg/mL), MgCl2 (10 mM), pyruvate kinase (4 units), lactate dehydrogenase (0.7 units), phosphoenol pyruvate (1 mM), and NADH (0.28 mM) and ATP (2000 μM) in 90 mM Tris buffer containing 0.2% octyl-glucoside and 1% DMSO, pH 7.5. The inhibition reaction was started by mixing serial diluted test compound with the above reaction mixture. The absorption at 340 nm was monitored continuously for 4 hours at 30° C. on Synergy 2 plate reader (BioTech). Reaction rates around 3 to 4 h time frame were used to calculate % inhibitions, from which IC50 values were generated.
uKit with N-Terminal GST Fusion Used for Screening (Seq ID No. 2)

Compound | IC50 [1] [nM] | IC50 [2] [nM] | IC50 ([3]; read-out: uFMS) [nM] | IC50 [4] [nM] | IC50 ([3]; uFMS) [nM]
COCCN1CCN(C(=O)Nc2cc(F)c(Oc3ccnc(-c4cnn(C)c4)c3)cc2F)C1=O [Example 98, N-(2,5-difluoro-4-((2-(1-methyl-1H-pyrazol-4-yl)pyridin-4-yl)oxy)phenyl)-3-(2-methoxyethyl)-2-oxoimidazolidine-1-carboxamide] | 10 to 100 | 100 to 1000 | 100 to 1000 | – | –
CCN1CCN(C(=O)Nc2ccc(Oc3ccnc(-c4cn(C)cn4)c3)cn2)C1=O [Example 82, 3-ethyl-N-(5-((2-(1-methyl-1H-imidazol-4-yl)pyridin-4-yl)oxy)pyridin-2-yl)-2-oxoimidazolidine-1-carboxamide] | 10 to 100 | 10 to 100 | 10 to 100 | < 10 | –
CCc1nc(NC(=O)N2CCN(C3CCOCC3)C2=O)ccc1Oc1ccnc(-c2ccnc(C)c2)c1 [Example 64, N-(6-ethyl-5-((2′-methyl-[2,4′-bipyridin]-4-yl)oxy)pyridin-2-yl)-2-oxo-3-(tetrahydro-2H-pyran-4-yl)imidazolidine-1-carboxamide] | > 1000 | > 1000 | 100 to 1000 | > 1000 | –
COC1(CCN2CCN(C(=O)Nc3cc(Cl)c(Oc4ccnc(-c5cnn(C)c5)c4)cc3F)C2=O)CC1 [Example 99, N-(5-chloro-2-fluoro-4-((2-(1-methyl-1H-pyrazol-4-yl)pyridin-4-yl)oxy)phenyl)-3-(2-(1-methoxycyclopropyl)ethyl)-2-oxoimidazolidine-1-carboxamide] | 10 to 100 | 10 to 100 | 10 to 100 | – | –
N#CCC(=O)Nc1cc(Oc2cc(F)c(NC(=O)N3CCN(C4CCOCC4)C3=O)cc2Cl)ccn1 [Example 114, N-(5-chloro-4-((2-(2-cyanoacetamido)pyridin-4-yl)oxy)-2-fluorophenyl)-2-oxo-3-(tetrahydro-2H-pyran-4-yl)imidazolidine-1-carboxamide] | – | – | > 1000 | > 1000 | –
Cn1cc(-c2cc(Oc3ccc(NC(=O)N4CCN(C5CCOCC5)C4=O)cc3F)ccn2)cn1 [Example 102, N-(3-fluoro-4-((2-(1-methyl-1H-pyrazol-4-yl)pyridin-4-yl)oxy)phenyl)-2-oxo-3-(tetrahydro-2H-pyran-4-yl)imidazolidine-1-carboxamide] | 100 to 1000 | > 1000 | 10 to 100 | – | –
COCCN1CCN(C(=O)Nc2cc(Cl)c(Oc3ccnc(-c4cnn(C)c4)c3)cc2F)C1=O [Example 100, N-(5-chloro-2-fluoro-4-((2-(1-methyl-1H-pyrazol-4-yl)pyridin-4-yl)oxy)phenyl)-3-(2-methoxyethyl)-2-oxoimidazolidine-1-carboxamide] | 10 to 100 | 100 to 1000 | 10 to 100 | – | –
[2H]C([2H])([2H])n1cc(-c2cc(Oc3ccc(NC(=O)N4CCN(C5CCOCC5)C4=O)nc3)ccn2)cn1 [Example 6, 2-oxo-3-(tetrahydro-2H-pyran-4-yl)-N-(5-((2-(1-(trideuteromethyl)-1H-pyrazol-4-yl)pyridin-4-yl)oxy)pyridin-2-yl)imidazolidine-1-carboxamide] | – | 10 to 100 | 10 to 100 | – | –
COCCN1CCN(C(=O)Nc2ccc(Oc3ccnc(-c4cnc(C)s4)c3)c(C)n2)C1=O [Example 67, 3-(2-methoxyethyl)-N-(6-methyl-5-((2-(2-methylthiazol-5-yl)pyridin-4-yl)oxy)pyridin-2-yl)-2-oxoimidazolidine-1-carboxamide] | 100 to 1000 | 100 to 1000 | 100 to 1000 | > 1000 | –
COC[C@H](C)N1CCN(C(=O)Nc2ccc(Oc3ccnc(-c4cnn(C)c4)c3)c(C)n2)C1=O [Example 38, (S)-3-(1-methoxypropan-2-yl)-N-(6-methyl-5-((2-(1-methyl-1H-pyrazol-4-yl)pyridin-4-yl)oxy)pyridin-2-yl)-2-oxoimidazolidine-1-carboxamide] | < 10 | 10 to 100 | – | < 10 | 10 to 100
Cn1cc(-c2cc(Oc3ccc(NC(=O)N4CCN(C5CCOC(C)(C)C5)C4=O)nc3)ccn2)cn1 (centres unmarked) [Example 13, 3-(2,2-dimethyltetrahydro-2H-pyran-4-yl)-N-(5-((2-(1-methyl-1H-pyrazol-4-yl)pyridin-4-yl)oxy)pyridin-2-yl)-2-oxoimidazolidine-1-carboxamide] | 10 to 100 | 100 to 1000 | 10 to 100 | – | –
COC1(CCN2CCN(C(=O)Nc3ccc(Oc4ccnc(-c5cnn(C)c5)c4)cn3)C2=O)CC1 [Example 17, 3-(2-(1-methoxycyclopropyl)ethyl)-N-(5-((2-(1-methyl-1H-pyrazol-4-yl)pyridin-4-yl)oxy)pyridin-2-yl)-2-oxoimidazolidine-1-carboxamide] | 10 to 100 | 10 to 100 | – | – | 10 to 100
Cn1cc(-c2cc(Oc3ccc(NC(=O)N4CCN(C5CCOCC5)C4=O)c(F)c3Cl)ccn2)cn1 [Example 113, N-(3-chloro-2-fluoro-4-((2-(1-methyl-1H-pyrazol-4-yl)pyridin-4-yl)oxy)phenyl)-2-oxo-3-(tetrahydro-2H-pyran-4-yl)imidazolidine-1-carboxamide] | – | 100 to 1000 | < 10 | 10 to 100 | –
Cn1cc(-c2cc(Oc3ccc(NC(=O)N4CCN(C5CCOCC5)C4=O)c(F)c3)ccn2)cn1 [Example 95, N-(2-fluoro-4-((2-(1-methyl-1H-pyrazol-4-yl)pyridin-4-yl)oxy)phenyl)-2-oxo-3-(tetrahydro-2H-pyran-4-yl)imidazolidine-1-carboxamide] | 10 to 100 | 10 to 100 | 10 to 100 | – | –
Cc1c(Oc2ccnc(-c3cnn(C)c3)c2)ccc(NC(=O)N2CCN(C3CCOCC3)C2=O)c1F [Example 93, N-(2-fluoro-3-methyl-4-((2-(1-methyl-1H-pyrazol-4-yl)pyridin-4-yl)oxy)phenyl)-2-oxo-3-(tetrahydro-2H-pyran-4-yl)imidazolidine-1-carboxamide] | 10 to 100 | 100 to 1000 | 10 to 100 | – | –
CC1CN(C(=O)Nc2ccc(Oc3ccnc(-c4cnn(C)c4)c3)cn2)C(=O)N1C1CCOCC1 (centres unmarked) [Example 40, 4-methyl-N-(5-((2-(1-methyl-1H-pyrazol-4-yl)pyridin-4-yl)oxy)pyridin-2-yl)-2-oxo-3-(tetrahydro-2H-pyran-4-yl)imidazolidine-1-carboxamide] | – | 10 to 100 | < 10 | 10 to 100 | –
